# Reference: ChEMBL document CHEMBL2034916, “Thiourea compound AW00178 sensitizes human H1299 lung carcinoma cells to TRAIL-mediated apoptosis” (2012)
# Calls of active or inactive are those of the source. The calls are words filed in the database; no cut-off is given here.
# Columns and labels:
# [1] = Down regulation of cIAP2 expression in human H1299 cells at 10 uM after 24 hrs by Western blot analysis in presence of 100 ug/ml TRAIL; assay type: functional, cell-based; conditions: NCI-H1299
# [2] = biological target: T1, c-Jun N-terminal kinase, JNK (Homo sapiens) (UniProt P45983+P53779+P45984); assay: Induction of JNK-mediated c-Jun phosphorylation in human H1299 cells at 5 to 10 uM after 24 hrs by Western blot analysis; assay type: cell-based
# [3] = Upregulation of CHOP in human H1299 cells at 10 uM after 24 hrs by Western blot analysis in presence of 100 ug/ml TRAIL and pretreated with 10 uM JNK inhibition SP600125; assay type: functional, cell-based; conditions: NCI-H1299
# NCI-H1299 [4] = assay: Induction of TRAIL-mediated apoptosis in human H1299 cells assessed as caspase 8 activation at 5 to 10 uM after 24 hrs by fluorometric assay in presence of pan-caspase inhibitor Z-VAD-FMK; assay type: functional, cell-based
# [5] = Down regulation of XIAP expression in human H1299 cells at 5 to 10 uM after 24 hrs by Western blot analysis in presence of 100 ug/ml TRAIL; assay type: functional, cell-based; conditions: NCI-H1299
# NCI-H1299 [6] = assay: Induction of apoptosis in human H1299 cells assessed as apoptotic cells at 10 uM after 48 hrs by annexinV/propidium iodide staining-based flow cytometric analysis in presence of 100 ug/ml TRAIL (reference value: 1.35%); assay type: functional
# H1299 [7] = assay: Inhibition of Akt phosphorylation in human H1299 cells at 5 to 10 uM after 24 hrs by Western blot analysis in presence of 100 ug/ml TRAIL; assay type: cell-based
# [8] = biological target: T1, c-Jun N-terminal kinase, JNK (Homo sapiens); assay: Induction of JNK-mediated CHOP protein expression in human H1299 cells after 24 hrs by Western blot analysis; assay type: cell-based
# [9] = Down regulation of AKT-mediated survivin expression in human H1299 cells at 5 to 10 uM after 24 hrs by Western blot analysis in presence of 100 ug/ml TRAIL; assay type: cell-based
# [10] = Down regulation of XIAP expression in human H1299 cells at 5 to 10 uM after 24 hrs by Western blot analysis; assay type: functional, cell-based; conditions: NCI-H1299
# NCI-H1299 [11] = assay: Induction of apoptosis in human H1299 cells assessed as apoptotic cells at 5 uM after 48 hrs by annexinV/propidium iodide staining-based flow cytometric analysis (reference value: 1.35%); assay type: functional
# [12] = Down regulation of cIAP1 expression in human H1299 cells at 10 uM after 24 hrs by Western blot analysis in presence of 100 ug/ml TRAIL; assay type: functional, cell-based; conditions: NCI-H1299
# NCI-H1299 [13] = assay: Induction of apoptosis in human H1299 cells assessed as apoptotic cells at 5 uM after 48 hrs by annexinV/propidium iodide staining-based flow cytometric analysis in presence of 100 ug/ml TRAIL (reference value: 1.35%); assay type: functional
# NCI-H1299 [14] = assay: Induction of DR5 protein expression in human H1299 cells after 24 hrs by Western blot analysis; assay type: functional, cell-based
# NCI-H1299 [15] = assay: Induction of TRAIL-mediated apoptosis in human H1299 cells assessed as caspase 8 activation at 5 to 10 uM after 24 hrs by fluorometric assay; assay type: functional, cell-based
# [16] = Down regulation of XIAP expression in human H1299 cells at 0.1 to 30 uM after 24 hrs by Western blot analysis in presence of 100 ug/ml TRAIL and PI3K inhibitor LY294002; assay type: functional, cell-based; conditions: NCI-H1299
# [17] = Down regulation of Bcl-Xl expression in human H1299 cells at 10 uM after 24 hrs by Western blot analysis in presence of 100 ug/ml TRAIL; assay type: functional, cell-based; conditions: NCI-H1299
# [18] = Down regulation of AKT-mediated survivin expression in human H1299 cells at 5 to 10 uM after 24 hrs by Western blot analysis; assay type: cell-based
# NCI-H1299 [19] = assay: Induction of apoptosis in human H1299 cells assessed as apoptotic cells at 10 uM after 48 hrs by annexinV/propidium iodide staining-based flow cytometric analysis (reference value: 1.35%); assay type: functional
# H1299 [20] = assay: Inhibition of Akt phosphorylation in human H1299 cells at 5 to 10 uM after 24 hrs by Western blot analysis; assay type: cell-based
# [21] = biological target: T1, c-Jun N-terminal kinase, JNK (Homo sapiens); assay: Induction of JNK-mediated c-Jun phosphorylation in human H1299 cells at 5 to 10 uM after 24 hrs by Western blot analysis in presence of 100 ug/ml TRAIL; assay type: cell-based
# [22] = biological target: T1, c-Jun N-terminal kinase, JNK (Homo sapiens); assay: Induction of JNK-mediated c-Jun phosphorylation in human H1299 cells at 10 uM for 30 mins cotreated with TRAIL by Western blot analysis pretreated with 10 uM JNK inhibitor SP600125 for 1 hr; assay type: cell-based
# [23] = Down regulation of XIAP expression in human H1299 cells at 0.1 to 30 uM after 24 hrs by Western blot analysis; assay type: functional, cell-based; conditions: NCI-H1299
# [24] = Down regulation of cIAP2 expression in human H1299 cells at 0.1 to 30 uM after 24 hrs by Western blot analysis in presence of 100 ug/ml TRAIL and PI3K inhibitor LY294002; assay type: functional, cell-based; conditions: NCI-H1299
# H1299 [25] = assay: Inhibition of Akt phosphorylation on human H1299 cells after 24 hrs by Western blot analysis; assay type: cell-based
# H1299 [26] = assay: Inhibition of Akt in human H1299 cells assessed as decrease in survivin expression after 24 hrs by Western blot analysis; assay type: cell-based
# NCI-H1299 [27] = assay: Induction of DR5 expression in human H1299 cells at 0.1 to 30 uM after 24 hrs by Western blot analysis; assay type: functional, cell-based
# [28] = Down regulation of cIAP2 expression in human H1299 cells at 0.1 to 30 uM after 24 hrs by Western blot analysis; assay type: functional, cell-based; conditions: NCI-H1299
# [29] = biological target: T1, c-Jun N-terminal kinase, JNK (Homo sapiens); assay: Induction of JNK-mediated CHOP expression in human H1299 cells at 0.1 to 30 uM after 24 hrs by Western blot analysis; assay type: cell-based
smiles,measurement,setting,value
Cc1ccc(Cl)cc1NC(=S)Nc1ccc(-n2nccc2C(F)(F)F)cc1,Activity,[1],Active
same,Activity,[2],Active
same,Activity,[3],inactive
same,Activity,NCI-H1299 [4],inactive
same,Activity,[5],Active
same,Activity,NCI-H1299 [6],39.4%
same,inhibition,H1299 [7],Active
same,Activity,[8],Active
same,Activity,[9],Active
same,Activity,[10],Active
same,Activity,NCI-H1299 [11],1.52%
same,Activity,[12],Active
same,Activity,NCI-H1299 [13],6.59%
same,Activity,NCI-H1299 [14],Active
same,Activity,NCI-H1299 [15],Active
same,Activity,[16],Active
same,Activity,[17],Active
same,Activity,[18],Active
same,Activity,NCI-H1299 [19],3.25%
same,inhibition,H1299 [20],Active
same,Activity,[21],Active
same,Activity,[22],Active
same,Activity,[23],Active
O=c1cc(N2CCOCC2)oc2c(-c3ccccc3)cccc12,Activity,[24],Active
same,inhibition,H1299 [25],Dose-dependent effect
same,inhibition,H1299 [26],Dose-dependent effect
same,Activity,NCI-H1299 [27],inactive
same,Activity,[28],Active
same,Activity,[29],inactive
